The series is described as follows: recombinant UMI read abundance after kanamycin selection (control-corrected) (log10(CPM+1)); higher = more efficient recombination; extreme values may be limits of the assay; sequences stand for … in AGTGCAGAGAAAATCGGCCAGTTTTCTCTGCCTGCAGTCCGCATGCCGTGGGACCCCTTGGGTTCTAACCTGTTGCCTAGATTTATGCAGCGGACTGCCTTTCTCCCAAAGTGATAAACCGG…AGGTTGGTTTCACT; site = the 11-nt donor. A digest of the protocol:
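Sequencing read counts were converted to CPM, averaged over two replicates and scaled by control-derived factors. Results are given as log10(CPM+1). The reads covered the donor–target junction of recombinant UMIs from a pooled Escherichia coli screen of donor and donor-binding-loop pairs for the IS621 bridge recombinase.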
For “GCTTGCCCATGGACCGGTTTTCCCGGTAATCCGTATTTGAC (site GCTTGCCCTTT)”, the “recombinant UMI read abundance (log10)” value stood at 0.0621. Next, “GCTTGGACATGGACCGGTTTTCCCGGTAATCCGTATTTGGA (site GCTTGGACTTC)”: 0.32; “GGAAATCCATGGACCGGTTTTCCCGGTAATCCGTATTTGGG (site GGAAATCCTCC)”: 0.00368; “GGAACGTCATGGACCGGTTTTCCCGGTAATCCGTATTTGTT (site GGAACGTCTAA)”: 0.993. The result for “GGAACGTCATGGACCGGTTTTCCCGGTAATCCGTATTTGTT (site GGCACGTCTAA)” reads 0.00816; that for “GGAACGTCATGGACCGGTTTTCCCGGTAATCCGTATTTGTT (site GGGACGTCTAA)”, 0.28; that for “GGAACGTCATGGACCGGTTTTCCCGGTAATCCGTATTTGTT (site GGTACGTCTAA)”, 0.00512. Regarding “GGAACTACATGGACCGGTTTTCCCGGTAATCCGTATTTGCC (site GGAACTACTGG)”, the “recombinant UMI read abundance (log10)” value worked out at 1.05.

“GGAAGCACATGGACCGGTTTTCCCGGTAATCCGTATTTGGG (site GGAAGCACTCC)”: the “recombinant UMI read abundance (log10)” value came out at 0.0218. For the sequence “GGAAGTACATGGACCGGTTTTCCCGGTAATCCGTATTTGAC (site GGAAGTACTGT)”, the “recombinant UMI read abundance (log10)” value was determined as 2.57. The result for “GGAAGTGCATGGACCGGTTTTCCCGGTAATCCGTATTTGAA (site GGAAGTGCTTT)” reads 2.27. The result for “GGAATCTCATGGACCGGTTTTCCCGGTAATCCGTATTTGAA (site GGAATCTCTTT)” reads 2.55; that for “GGAATGTCATGGACCGGTTTTCCCGGTAATCCGTATTTGTT (site GGAATGTCTAA)”, 2.44. Next, “GGAGACGCATGGACCGGTTTTCCCGGTAATCCGTATTTGGT (site GGAGACGCTAC)”: 0.461; “GGAGCCTCATGGACCGGTTTTCCCGGTAATCCGTATTTGAC (site GGAGCCTCTGT)”: 2.15; “GGAGCTACATGGACCGGTTTTCCCGGTAATCCGTATTTGAG (site GGAGCTACTCT)”: 0.606.

In the case of “GGAGGCGCATGGACCGGTTTTCCCGGTAATCCGTATTTGCC (site GGAGGCGCTGG)”, the “recombinant UMI read abundance (log10)” value was 3.44.

With “GGAGGGGCATGGACCGGTTTTCCCGGTAATCCGTATTTGGT (site GGAGAGGCTAC)”, the “recombinant UMI read abundance (log10)” value is 0.335. With “GGAGGGGCATGGACCGGTTTTCCCGGTAATCCGTATTTGGT (site GGAGCGGCTAC)”, the “recombinant UMI read abundance (log10)” value is 0.00457. The result for “GGAGGGGCATGGACCGGTTTTCCCGGTAATCCGTATTTGGT (site GGAGGGGCTAC)” reads 0.699; that for “GGAGGGGCATGGACCGGTTTTCCCGGTAATCCGTATTTGGT (site GGAGTGGCTAC)”, 0.0205. “GGAGTGGCATGGACCGGTTTTCCCGGTAATCCGTATTTGGG (site GGAGTGGCTAC)”: the “recombinant UMI read abundance (log10)” value was determined as 0.497.

On to “GGAGTGGCATGGACCGGTTTTCCCGGTAATCCGTATTTGGG (site GGAGTGGCTCC)”, for which the “recombinant UMI read abundance (log10)” value stood at 0.779. Next, “GGAGTGGCATGGACCGGTTTTCCCGGTAATCCGTATTTGGG (site GGAGTGGCTGC)”: 0; “GGAGTGGCATGGACCGGTTTTCCCGGTAATCCGTATTTGGG (site GGAGTGGCTTC)”: 0.00897; “GGAGTTGCATGGACCGGTTTTCCCGGTAATCCGTATTTGGT (site GGAGTAGCTAC)”: 0.089. Next, “GGAGTTGCATGGACCGGTTTTCCCGGTAATCCGTATTTGGT (site GGAGTCGCTAC)”: 1.05; “GGAGTTGCATGGACCGGTTTTCCCGGTAATCCGTATTTGGT (site GGAGTGGCTAC)”: 0.00345; “GGAGTTGCATGGACCGGTTTTCCCGGTAATCCGTATTTGGT (site GGAGTTGCTAC)”: 0.861. Next, “GGATACACATGGACCGGTTTTCCCGGTAATCCGTATTTGGG (site GGATACACTCC)”: 0.348; “GGATAGACATGGACCGGTTTTCCCGGTAATCCGTATTTGCT (site GGATAGACTAG)”: 2.78; “GGATAGACATGGACCGGTTTTCCCGGTAATCCGTATTTGCT (site GGATAGACTCG)”: 0.855. For “GGATAGACATGGACCGGTTTTCCCGGTAATCCGTATTTGCT (site GGATAGACTGG)”, the “recombinant UMI read abundance (log10)” value turned out to be 2.33.

For “GGATAGACATGGACCGGTTTTCCCGGTAATCCGTATTTGCT (site GGATAGACTTG)”, the “recombinant UMI read abundance (log10)” value came to 1.1.

(Values after the supplement of paper PMC11208160.)
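Note: IS621 bridge recombinase in Escherichia coli cells against a fixed T5 target plasmid.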
